The values below are quoted from earlier work in patent US20230210830A1 (ALKEM LABORATORIES LIMITED, priority 2022, published 2023).

The structures appear in SMILES notation.

The subject of series [1] is aneurysmal subarachnoid hemorrhage (aSAH). The settings on record: oral administration; patients after aSAH; Ehrlich et al. 2019.
The conditions of series [2]: Strongest Basic.
The conditions of series [3]: humans.

Regarding `COCCOC(=O)C1=C(C)NC(C)=C(C(=O)OC(C)C)C1c1cccc([N+](=O)[O-])c1` (stereo not drawn) [nimodipine, isopropyl 2-methoxyethyl 1,4-dihydro-2,6-dimethyl-4-(m-nitrophenyl)-3,5-pyridinedicarboxylate], the clinical outcome in series [1] is “improved clinical outcome”. The “solubility in organic solvents” value (ethanol, polyethylene glycol 400, dimethyl sulfoxide (DMSO), and chloroform) is on record as “soluble”. In addition, the solubility in water result (water) was “insoluble”. Also, in series [2], the pKa was 5.41. Moreover, the bioavailability in series [3] is 12%. The t1/2 in series [3] (after oral administration) is 1.5 h.

As a reminder, the pKa is the pH at which an ionisable group is half protonated. As a reminder, the bioavailability is the share of a dose that reaches the circulation, judged against a reference dose that is usually intravenous.
